Data reported in patent US9636327B2 (University Health Network, Toronto General Hospital, priority 2013, dated 2017).

Columns and labels:
Yorkshire pigs = experiment: In-vivo swine model of VF cardiac arrest with CPR and defibrillation;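 further: VF induced by burst pacing in anesthetized pigs, left untreated 4 min, then 3 min CPR and defibrillation, with ECG and aortic pressure monitored for 30 min afterwards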
Text: Previously healthy 10-12 weeks-old Yorkshire pigs (n=24) were used. […] Following endotracheal intubation anesthesia was maintained by continuous administration of Isoflurane (2% mixed with 100% O2) and ventilated (Ohio ventilator R.A.E. Technologies, Inc. Ontario) at 21 breaths/min and was continuously measured using CO2MO Plus monitoring system (Novametrix Medical Systems). Animals were continuously monitored using Lifepak 12 Medtronic-PhysioControl defibrillator for ECG monitoring. Two self-adhesive defibrillation pads were attached to the lateral aspects of the chest wall for defibrillation. (Medtronics Inc, Redmond, Wash.)
Femoral arteries and veins were catheterized and an EP catheter (EP Technologies Inc, Sunnyvale, Calif.) was placed in the right ventricle to enable pacing and to induce VF. Two micro manometer-tipped Millar catheters (Millar Instruments, Inc, Houston, Tex.) were placed in Abdominal Aorta and right atrium. Pacing catheter was further attached to a custom designed signal acquisition and processing system. (Electrophysiological Recording system-Acqui2, Toronto, ON) The pressure and ECG signals were recorded at 1000 Hz with a 0.05 Hz high pass and 500 Hz low pass filter by custom software. (Acqui2, Cartesian Labs)
After initial monitoring and stabilization, VF was induced by burst pacing (10V of 60 Hz current for 2 seconds) and left untreated for 4 minutes. Then, chest compression was started using a pneumatic device (Lucas, Jolife AB, Lund, Sweden) at 100 compressions/min and manual ventilation at 6 breath/min using 5-6 liters/min of 100% O2 with an AMBU bag was performed. CPR was continued for 3 minutes with no interruption of chest compressions. […] After successful defibrillation, animals were monitored for 30 min to assess the outcome and occurrence of Refibrillations. At the end, survivors were sacrificed by inducing VF. If animals could not be defibrillated during refibrillation, the energy level was increased in a stepwise fashion to up to 4 attempts at 360 J.
Refibrillation was defined as recurrence of VF after at least 5 beats of a non-VF rhythm following defibrillation. Survival was determined based on presence of sBP≧30 mmHg in abdominal aorta and normal sinus rhythm at the end of 30 min observation period. Time to Return of Spontaneous Circulation (ROSC) was calculated from the onset of CPR until sBP≧60 mmHg was attained in abdominal aorta after successful defibrillation. Sustained ROSC was defined as maintenance of sBP≧60 mmHg by the end of 30-min observation post-defibrillation. Ventricular ERP was measured at baseline and at 20 minutes into recovery (if any) via the S1-S2 stimulation method. Surface ECG signals at 4 min of VF and at 7 min of VF were extracted to analyze for VF organization. A Spatio-temporal index of VF organization (Regularity Index (RI)) was used. RI was defined as the ratio of the power at the Dominant Frequency (DF) to the total power. […] The total power was calculated as the sums over the range of 5-15 Hz. Values vary between 0 (disorganized) to 1 (highly organized).
Mean time to ROSC, mean time to successful defibrillation, onset of refibrillation and regularity index of VF at different time points were analyzed using unpaired student t-test. Repeated-measures ANOVA was used to compare continuous variables between groups at different time points. Protein phosphorylation analysis and comparison of ordinal variables (number of refibrillations) were performed using Wilcoxon Mann-Whitney test. […] P<0.05 was considered statistically significant. All statistical analysis were performed using Stata 11.1 (Stata Corp LP)

isolated rabbit hearts = experiment: Ex-vivo rabbit model: Langendorff-perfused isolated hearts, VF induction and optical mapping of calcium alternans; design: species or system New-Zealand white rabbits
Experimental: New-Zealand white rabbits with weight ranging from 2.4-4.5 Kg were used. (n=14). All animals were anesthetized with sodium pentobarbital (35 mg/kg), aorta was attached to the Langendorff apparatus and retrogradely perfused with 37.5° C. oxygenated Tyrode solution with albumin 80 mg/L in deionized water equilibrated with 95% 02 and 5% CO2. Simultaneous optical mapping of epicardial surface of isolated hearts for Calcium and Voltage was performed using 0.5 mg Rhod2-AM and 10 microM/1 RH237. Blebbistatin at 10 microM/L was added to Tyrode solution to block cardiac contractions.
VF was induced by burst pacing for 30 sec at 60 Hz and 10V and hearts were continuously perfused during VF. […] VF was monitored for 4 min and then defibrillated at 5 J. Five minutes after termination of first VF episode, 4 more episodes of fibrillation-defibrillation were tried on each heart with 5 min recovery time (in sinus rhythm) in between. VF duration for each VF episode was 4 min (or shorter in case of self-termination) followed by defibrillation. […] Additionally, hearts were paced at various rates of 250, 220, 200, 180 and 160 msec Cycle Length (CL) for 30 seconds after first and second VF episodes. Simultaneous optical mapping of Calcium and voltage was performed during pacing to evaluate for Calcium Alternans. Calcium alternans was defined as beat-to-beat difference of more than 10% in Calcium wave amplitude. At the end of the experiment, LV tissue from the LV free wall was removed and frozen in liquid Nitrogen for further western blot analysis.
P<0.05 was considered statistically significant.

[1] = more water-soluble than dantrolene; cited from earlier work
[2] = 2 mg/kg bolus, defibrillation energy
[3] = 2 mg/kg bolus, post-defibrillation

## O=C1CN(N=Cc2ccc(-c3ccc([N+](=O)[O-])cc3)o2)C(=O)N1.[Na] [Dantrolene, 1-[[[5-(4-nitrophenyl)-2-furanyl]methylene]amino]-2,4-imidazolidinedione sodium salt]
Yorkshire pigs; 2 mg/kg bolus
  Number of Refibrillations: 0.6 ± 0.4
  Number of shocks to terminate refibrillations: 1 ± 0
  Sinus rhythm immediately post-defibrillation: approximately 90.91%
  Survival after Refibrillation: 100% (3)
  Time to ROSC calculated from immediately post-defibrillation: about 13±4 sec
  Time to onset of Refibrillation: 51 ± 9 s
  animals requiring energy levels ≦200J for defibrillating the initial VF: Ninety
  sBP peak at 5 min post-defibrillation: approximately 98±17 mmHg
Yorkshire pigs; 2 mg/kg bolus at onset of CPR
  Final Rhythm PEA: 0%
  Final Rhythm Sinus: 90.91%
  Final Rhythm VF (or VrF): 9.09%
  ROSC (at 5 min post-defibrillation): 90.91%
Yorkshire pigs; 2 mg/kg bolus, 20 minutes into recovery
  post-defibrillation VERP: about 215±9 msec
Yorkshire pigs; 2 mg/kg bolus, 30 min monitoring after defibrillation
  Refibrillation Incidence: 36.36%
Yorkshire pigs; [2]
  Maximum energy level: 187 ± 62 J
  Total energy level: 366 ± 139
Yorkshire pigs; 2 mg/kg bolus, initial VF plus all refibrillations
  Total time in VF Including VrF (refibrillation): 478 ± 19 s
Yorkshire pigs; 2 mg/kg bolus, initial VF without refibrillations
  Total time in VF Excluding VrF: 466 ± 18 s
Yorkshire pigs; [3]
  QT interval post-defibrillation: about 334±83 msec
  Tp-Tn (repolarization dispersion) post-defibrillation: about 84±22 msec
Yorkshire pigs; 2 mg/kg bolus, share of animals needing >2 attempts
  Number of shocks (>2 attempts): 9.09%
Yorkshire pigs; 2 mg/kg bolus, sodium salt, 2 mg/kg
  Refibrillation duration: 32 ± 6 s
Yorkshire pigs; 2 mg/kg bolus, survivors
  mean dBP at the end of experiment: about 61±10 mmHg
  mean sBP at the end of experiment: about 84±11 mmHg
Yorkshire pigs; Dantrolene Sodium 2 mg/kg bolus at onset of CPR after 4 min untreated VF
  Successful defibrillation: 100%
Yorkshire pigs; Dantrolene group, baseline
  QT interval at baseline: about 432±48 msec
  Tp-Tn (repolarization dispersion) at baseline: about 68±23 msec
Isolated rabbit hearts; Dantrolene 10-20 μM/l
  Incidence of CaA-ALT after second VF: approximately 12.5%
  mean duration of all VF episodes combined: about 194±234 sec
Isolated rabbit hearts; Dantrolene 10-20 μM/l infused at 1 min of first VF, 12 of 31 attempts
  successful attempts to induce VF (VF lasting ≧10 sec): 38.7%
Isolated rabbit hearts; Dantrolene 10-20 μM/l, 7 of 31 attempts
  VF episodes sustained >60 sec: 22.58%
Isolated rabbit hearts; Dantrolene 10-20 μM/l, pacing cycle length
  alternans threshold: about 186±11 msec CL

## O=C1CN(/N=C/c2ncc(-c3ccc(Br)cc3)o2)C(=O)N1 [Azumolene]
[1]
  water solubility relative to dantrolene: 30 times
